Measurements from ChEMBL document CHEMBL4837183, “Antiproliferative Bufadienolides from the Bulbs of Drimia altissima” (2021).

How the values were obtained:
Format in all cases: functional
SF-268 = experiment: Growth inhibition of human SF-268 cells measured after 48 hrs by SRB assay
SF-295 = experiment: Growth inhibition of human SF-295 cells measured after 48 hrs by SRB assay
SF-539 = experiment: Growth inhibition of human SF-539 cells measured after 48 hrs by SRB assay
SNB-19 = experiment: Growth inhibition of human SNB-19 cells measured after 48 hrs by SRB assay
SNB-75 = experiment: Growth inhibition of human SNB-75 cells measured after 48 hrs by SRB assay
A549 = experiment: Growth inhibition of human A549 cells measured after 48 hrs by SRB assay
HOP-62 = experiment: Growth inhibition of human HOP-62 cells measured after 48 hrs by SRB assay
HOP-92 = experiment: Growth inhibition of human HOP-92 cells measured after 48 hrs by SRB assay
NCI-H226 = experiment: Growth inhibition of human NCI-H226 cells measured after 48 hrs by SRB assay
NCI-H23 = experiment: Growth inhibition of human NCI-H23 cells measured after 48 hrs by SRB assay
NCI-H322M = experiment: Growth inhibition of human NCI-H322M cells measured after 48 hrs by SRB assay
NCI-H460 = experiment: Growth inhibition of human NCI-H460 cells measured after 48 hrs by SRB assay
NCI-H522 = experiment: Growth inhibition of human NCI-H522 cells measured after 48 hrs by SRB assay
PC-3 = experiment: Growth inhibition of human PC-3 cells measured after 48 hrs by SRB assay
DU-145 = experiment: Growth inhibition of human DU-145 cells measured after 48 hrs by SRB assay
IGROV-1 = experiment: Growth inhibition of human IGROV-1 cells measured after 48 hrs by SRB assay
OVCAR-3 = experiment: Growth inhibition of human OVCAR-3 cells measured after 48 hrs by SRB assay
OVCAR-5 = experiment: Growth inhibition of human OVCAR-5 cells measured after 48 hrs by SRB assay
OVCAR-8 = experiment: Growth inhibition of human OVCAR-8 cells measured after 48 hrs by SRB assay
NCI/ADR-RES = experiment: Growth inhibition of human NCI/ADR-RES cells measured after 48 hrs by SRB assay
SK-OV-3 = experiment: Growth inhibition of human SK-OV-3 cells measured after 48 hrs by SRB assay
786-0 = experiment: Growth inhibition of human 786-0 cells measured after 48 hrs by SRB assay
A498 = experiment: Growth inhibition of human A498 cells measured after 48 hrs by SRB assay
ACHN = experiment: Growth inhibition of human ACHN cells measured after 48 hrs by SRB assay
CAKI-1 = experiment: Growth inhibition of human CAKI-1 cells measured after 48 hrs by SRB assay
RXF 393 = experiment: Growth inhibition of human RXF 393 cells measured after 48 hrs by SRB assay
SN12C = experiment: Growth inhibition of human SN12C cells measured after 48 hrs by SRB assay
TK-10 = experiment: Growth inhibition of human TK-10 cells measured after 48 hrs by SRB assay
UO-31 = experiment: Growth inhibition of human UO-31 cells measured after 48 hrs by SRB assay
CCRF-CEM = experiment: Growth inhibition of human CCRF-CEM cells measured after 48 hrs by SRB assay
HL-60 = experiment: Growth inhibition of human HL-60 cells measured after 48 hrs by SRB assay
K562 = experiment: Growth inhibition of human K562 cells measured after 48 hrs by SRB assay
MOLT-4 = experiment: Growth inhibition of human MOLT-4 cells measured after 48 hrs by SRB assay
SR = experiment: Growth inhibition of human SR cells measured after 48 hrs by SRB assay
RPMI-8226 = experiment: Growth inhibition of human RPMI-8226 cells measured after 48 hrs by SRB assay
COLO 205 = experiment: Growth inhibition of human COLO 205 cells measured after 48 hrs by SRB assay
HCC 2998 = experiment: Growth inhibition of human HCC 2998 cells measured after 48 hrs by SRB assay
HCT-116 = experiment: Growth inhibition of human HCT-116 cells measured after 48 hrs by SRB assay
HCT-15 = experiment: Growth inhibition of human HCT-15 cells measured after 48 hrs by SRB assay
KM12 = experiment: Growth inhibition of human KM12 cells measured after 48 hrs by SRB assay
SW-620 = experiment: Growth inhibition of human SW-620 cells measured after 48 hrs by SRB assay
LOX IMVI = experiment: Growth inhibition of human LOX IMVI cells measured after 48 hrs by SRB assay
Malme-3M = experiment: Growth inhibition of human Malme-3M cells measured after 48 hrs by SRB assay
M14 = experiment: Growth inhibition of human M14 cells measured after 48 hrs by SRB assay
MDA-MB-435 = experiment: Growth inhibition of human MDA-MB-435 cells measured after 48 hrs by SRB assay
SK-MEL-2 = experiment: Growth inhibition of human SK-MEL-2 cells measured after 48 hrs by SRB assay
SK-MEL-28 = experiment: Growth inhibition of human SK-MEL-28 cells measured after 48 hrs by SRB assay
SK-MEL-5 = experiment: Growth inhibition of human SK-MEL-5 cells measured after 48 hrs by SRB assay
UACC-257 = experiment: Growth inhibition of human UACC-257 cells measured after 48 hrs by SRB assay
UACC-62 = experiment: Growth inhibition of human UACC-62 cells measured after 48 hrs by SRB assay
MCF7 = experiment: Growth inhibition of human MCF7 cells measured after 48 hrs by SRB assay
MDA-MB-231 = experiment: Growth inhibition of human MDA-MB-231 cells measured after 48 hrs by SRB assay
Hs-578T = experiment: Growth inhibition of human Hs-578T cells measured after 48 hrs by SRB assay
BT-549 = experiment: Growth inhibition of human BT-549 cells measured after 48 hrs by SRB assay
T47D = experiment: Growth inhibition of human T47D cells measured after 48 hrs by SRB assay
MDA-MB-468 = experiment: Growth inhibition of human MDA-MB-468 cells measured after 48 hrs by SRB assay

Compound: CCO[C@H]1C=C2CC[C@@H]3[C@H]([C@@H](O)C[C@]4(C)[C@@H](c5ccc(=O)oc5)CC[C@]34O)[C@@]2(C)CC1
- GI50 (SF-268): 0.471 µM
- GI50 (SF-295): 1.2 µM
- GI50 (SF-539): 0.968 µM
- GI50 (SNB-19): 2.35 µM
- GI50 (SNB-75): 1.06 µM
- GI50 (A549): 0.434 µM
- GI50 (HOP-62): 0.974 µM
- GI50 (HOP-92): 0.757 µM
- GI50 (NCI-H226): 1.77 µM
- GI50 (NCI-H23): 1.36 µM
- GI50 (NCI-H322M): 1.4 µM
- GI50 (NCI-H460): 0.247 µM
- GI50 (NCI-H522): 0.252 µM
- GI50 (PC-3): 0.839 µM
- GI50 (DU-145): 0.423 µM
- GI50 (IGROV-1): 1.84 µM
- GI50 (OVCAR-3): 0.618 µM
- GI50 (OVCAR-5): 2.03 µM
- GI50 (OVCAR-8): 1.67 µM
- GI50 (NCI/ADR-RES): 1.61 µM
- GI50 (SK-OV-3): 1.91 µM
- GI50 (786-0): 0.927 µM
- GI50 (A498): 0.46 µM
- GI50 (ACHN): 0.251 µM
- GI50 (CAKI-1): 1.15 µM
- GI50 (RXF 393): 0.709 µM
- GI50 (SN12C): 0.905 µM
- GI50 (TK-10): 1.3 µM
- GI50 (UO-31): 0.94 µM
- GI50 (CCRF-CEM): 0.233 µM
- GI50 (HL-60): 0.649 µM
- GI50 (K562): 1.27 µM
- GI50 (MOLT-4): 0.189 µM
- GI50 (SR): 0.418 µM
- GI50 (RPMI-8226): 1.45 µM
- GI50 (COLO 205): 4.22 µM
- GI50 (HCC 2998): 4.51 µM
- GI50 (HCT-116): 0.716 µM
- GI50 (HCT-15): 1.8 µM
- GI50 (KM12): 2.2 µM
- GI50 (SW-620): 0.911 µM
- GI50 (LOX IMVI): 1.8 µM
- GI50 (Malme-3M): 1.8 µM
- GI50 (M14): 1.93 µM
- GI50 (MDA-MB-435): 1.4 µM
- GI50 (SK-MEL-2): 1.2 µM
- GI50 (SK-MEL-28): 1.66 µM
- GI50 (SK-MEL-5): 1.36 µM
- GI50 (UACC-257): 1.89 µM
- GI50 (UACC-62): 1.27 µM
- GI50 (MCF7): 1.52 µM
- GI50 (MDA-MB-231): > 5.75 µM
- GI50 (Hs-578T): 0.369 µM
- GI50 (BT-549): 0.946 µM
- GI50 (T47D): 2.17 µM
- GI50 (MDA-MB-468): > 0.55 µM

Compound: C[C@]12CC[C@@H](O)C=C1CC[C@@H]1[C@@H]2[C@@H](O)C[C@]2(C)[C@@H](c3ccc(=O)oc3)CC[C@]12O
- GI50 (SF-268): 0.656 µM
- GI50 (SF-295): 1.75 µM
- GI50 (SF-539): 1.49 µM
- GI50 (SNB-19): 4.97 µM
- GI50 (SNB-75): 2.17 µM
- GI50 (A549): 0.649 µM
- GI50 (HOP-62): 1.55 µM
- GI50 (HOP-92): 2.1 µM
- GI50 (NCI-H226): 7.56 µM
- GI50 (NCI-H23): 2.23 µM
- GI50 (NCI-H322M): 2.88 µM
- GI50 (NCI-H460): 0.573 µM
- GI50 (NCI-H522): 0.639 µM
- GI50 (PC-3): 1.88 µM
- GI50 (DU-145): 0.76 µM
- GI50 (IGROV-1): 3.69 µM
- GI50 (OVCAR-3): 0.739 µM
- GI50 (OVCAR-5): 2.84 µM
- GI50 (OVCAR-8): 2.11 µM
- GI50 (NCI/ADR-RES): 2.23 µM
- GI50 (SK-OV-3): 4.24 µM
- GI50 (786-0): 0.998 µM
- GI50 (A498): 1.77 µM
- GI50 (ACHN): 0.475 µM
- GI50 (CAKI-1): 2.47 µM
- GI50 (RXF 393): 0.412 µM
- GI50 (SN12C): 1.07 µM
- GI50 (TK-10): 2.98 µM
- GI50 (UO-31): 2.15 µM
- GI50 (CCRF-CEM): 0.502 µM
- GI50 (HL-60): 0.273 µM
- GI50 (K562): 0.644 µM
- GI50 (MOLT-4): 0.303 µM
- GI50 (SR): 0.189 µM
- GI50 (RPMI-8226): 2.54 µM
- GI50 (COLO 205): 6.05 µM
- GI50 (HCC 2998): 7.85 µM
- GI50 (HCT-116): 0.532 µM
- GI50 (HCT-15): 4.11 µM
- GI50 (KM12): 5 µM
- GI50 (SW-620): 1.69 µM
- GI50 (LOX IMVI): 3.69 µM
- GI50 (Malme-3M): 4.35 µM
- GI50 (M14): 3.38 µM
- GI50 (MDA-MB-435): 3.35 µM
- GI50 (SK-MEL-2): 3.06 µM
- GI50 (SK-MEL-28): 3.47 µM
- GI50 (SK-MEL-5): 3.03 µM
- GI50 (UACC-257): 3.45 µM
- GI50 (UACC-62): 3.31 µM
- GI50 (MCF7): 3.53 µM
- GI50 (MDA-MB-231): 8.5 µM
- GI50 (Hs-578T): 0.831 µM
- GI50 (BT-549): 0.658 µM
- GI50 (T47D): 4.71 µM
- GI50 (MDA-MB-468): 10.2 µM
